Test results reported in ChEMBL document CHEMBL2057184, “Essential structure of opioid κ receptor agonist nalfurafine for binding to the κ receptor 2: synthesis of decahydro(iminoethano)phenanthrene derivatives and their pharmacologies” (Bioorg Med Chem Lett, 2012).

Columns and labels:
Mu-type opioid receptor = Mu-type opioid receptor (Mus musculus, UniProt P42866); experiment: Displacement of [3H]DAMGO from mu opioid receptor in mouse cerebellum
[1] = biological target: Kappa-type opioid receptor (Cavia porcellus, UniProt P41144); experiment: Displacement of [3H]U-69,593 from kappa opioid receptor in guinea pig cerebellum
[2] = biological target: Delta-type opioid receptor (Mus musculus, UniProt P32300); experiment: Displacement of [3H]DPDPE from delta opioid receptor in mouse cerebellum
[3] = Selectivity ratio of Ki for delta opioid receptor in mouse cerebellum to Ki for kappa opioid receptor in guinea pig cerebellum; format: tissue-based
[4] = Selectivity ratio of Ki for mu opioid receptor in mouse cerebellum to Ki for kappa opioid receptor in guinea pig cerebellum; format: tissue-based

Sequence of Mu-type opioid receptor (P42866 whole entry): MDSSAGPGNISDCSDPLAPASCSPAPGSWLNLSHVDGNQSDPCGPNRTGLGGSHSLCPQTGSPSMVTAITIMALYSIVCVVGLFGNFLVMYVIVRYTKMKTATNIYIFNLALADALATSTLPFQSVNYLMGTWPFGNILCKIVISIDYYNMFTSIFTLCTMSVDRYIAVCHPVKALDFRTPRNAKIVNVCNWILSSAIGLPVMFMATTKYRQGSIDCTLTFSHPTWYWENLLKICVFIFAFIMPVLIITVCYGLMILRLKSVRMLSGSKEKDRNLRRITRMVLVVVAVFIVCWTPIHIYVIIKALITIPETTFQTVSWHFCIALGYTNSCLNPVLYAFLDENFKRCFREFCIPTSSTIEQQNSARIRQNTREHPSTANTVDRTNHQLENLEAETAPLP
Sequence of Delta-type opioid receptor (P32300 whole entry): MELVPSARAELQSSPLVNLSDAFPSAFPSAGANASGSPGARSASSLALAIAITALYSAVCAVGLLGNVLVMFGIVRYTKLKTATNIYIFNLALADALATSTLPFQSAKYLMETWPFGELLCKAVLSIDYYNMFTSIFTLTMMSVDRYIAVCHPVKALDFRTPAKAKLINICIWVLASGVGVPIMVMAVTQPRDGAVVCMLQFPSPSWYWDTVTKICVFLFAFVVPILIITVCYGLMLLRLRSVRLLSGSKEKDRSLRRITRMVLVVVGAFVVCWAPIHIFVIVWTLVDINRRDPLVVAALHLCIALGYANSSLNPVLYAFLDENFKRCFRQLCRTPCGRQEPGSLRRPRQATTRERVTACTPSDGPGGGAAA
Sequence of Kappa-type opioid receptor (P41144 whole entry): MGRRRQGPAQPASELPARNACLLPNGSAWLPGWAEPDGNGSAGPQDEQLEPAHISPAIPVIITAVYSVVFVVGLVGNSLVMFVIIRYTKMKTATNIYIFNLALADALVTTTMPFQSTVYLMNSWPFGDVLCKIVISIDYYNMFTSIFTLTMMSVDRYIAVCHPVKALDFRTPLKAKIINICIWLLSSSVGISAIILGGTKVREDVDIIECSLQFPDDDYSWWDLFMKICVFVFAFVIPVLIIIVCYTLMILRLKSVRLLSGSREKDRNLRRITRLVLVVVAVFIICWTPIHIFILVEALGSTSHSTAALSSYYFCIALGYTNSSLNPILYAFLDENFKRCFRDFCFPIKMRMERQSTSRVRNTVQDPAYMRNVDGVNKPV

| Compound | Ki (Mu-type opioid receptor) [nM] | Ki [1] [nM] | Ki [2] [nM] | Ratio Ki [3] | Ratio Ki [4] |
| --- | --- | --- | --- | --- | --- |
| CN[C@@H]1CC[C@@]2(O)[C@H]3CC4=C(CCCC4)[C@@]2(CCN3CC2CC2)C1 | > 1000 | 352 | > 1000 |  |  |
| CN(C(=O)/C=C/c1ccoc1)[C@@H]1CC[C@H]2[C@H]3Cc4ccc(O)c5c4[C@@]2(CCN3CC2CC2)[C@H]1O5 | 0.51 | 0.35 | 8.82 | 25.3 | 1.47 |
| CN(C(=O)/C=C/c1ccoc1)[C@@H]1CC[C@H]2[C@H]3CC4=C(CCCC4)[C@@]2(CCN3CC2CC2)C1 | 24.6 | 12.7 | 204 | 16.1 | 1.94 |
| CN(C(=O)/C=C/c1ccoc1)[C@@H]1CC[C@@]2(O)[C@H]3CC4=C(CCCC4)[C@@]2(CCN3CC2CC2)C1 | 83.2 | 5.64 | 308 | 54.5 | 14.7 |
| CN(C(=O)/C=C/c1ccoc1)[C@@H]1CC[C@H]2CN(CC3CC3)CC[C@@H]2C1 | > 100000 | 19100 | > 100000 |  |  |
| O=C1CC[C@@]2(O)[C@H]3CC4=C(CCCC4)[C@@]2(CCN3CC2CC2)C1 | 391 | 787 | 939 | 1.19 | 0.5 |
| CN(C(=O)/C=C/c1ccoc1)[C@@H]1CC[C@@]2(O)[C@H]3Cc4ccc(O)cc4[C@@]2(CCN3CC2CC2)C1 | 0.43 | 0.18 | 2.09 | 11.8 | 2.42 |
| CN(C(=O)/C=C/c1ccoc1)[C@@H]1CC[C@@]2(O)[C@H]3Cc4cccc5c4[C@@]2(CCN3CC2CC2)[C@H]1O5 | 169 | 2.82 | > 1000 |  | 59.8 |
